The source of these data is ChEMBL document CHEMBL1152159, “Possible involvement of radical intermediates in the inhibition of cysteine proteases by allenyl esters and amides” (Bioorg Med Chem Lett, 2008).

Each structure is given as a SMILES string.

Data set [1] has as its system Rattus norvegicus. As to the kind of experiment: Inhibition of water-immersion stress-induced ulcer formation in rat at 3 mg/kg. The class given is functional.
Data set [2] relates to Rattus norvegicus. As to the kind of experiment: Inhibition of water-immersion stress-induced ulcer formation in rat at 30 mg/kg. The settings on record: read-out: INH.
The nature of data set [3]: Dissociation constant, pKa of the compound. In kind it is physicochemical.
For data set [4], the system named is Rattus norvegicus. As to the kind of experiment: Inhibition of water-immersion stress-induced ulcer formation in rat at 1 mg/kg. In kind it is functional.
The target in data set [5] is Cathepsin B (Homo sapiens, UniProt P07858). As to the kind of experiment: Inhibition of cathepsin B in oxygen free condition.
In data set [6] the test system is Rattus norvegicus. As to the kind of experiment: Inhibition of water-immersion stress-induced ulcer formation in rat at 10 mg/kg. In kind it is functional.
Data set [7] is described as follows: Inhibition of urease.

On to `NC(N)=Nc1nc(CSCC/C(N)=N/S(N)(=O)=O)cs1` [FAMOTIDINE], for which the inhibition in vivo at 3 mg/kg in data set [1] came out at 59%.
On to `CN/C(=N\CCSCc1nc[nH]c1C)NC#N` [CIMETIDINE], for which, in data set [2], the inhibition in vivo at 30 mg/kg stood at 74%.
For `N[C@@H](CCC(=O)N[C@@H](CS)C(=O)NCC(=O)O)C(=O)O` [GLUTATHIONE], in data set [3], the pKa (as a rule, the pH at which an ionisable group is half protonated) was 8.7.
For the molecule `CCOC(=O)C(C)=C=C(c1ccccc1)c1ccccc1`, in data set [4], the inhibition in vivo at 1 mg/kg is 40%. In addition, the IC50 (commonly the point on the concentration scale where inhibition reaches its midpoint) was found to be 232 µM in data set [5] and 1.1 µM in data set [7]. Moreover, the inhibition in vivo at 10 mg/kg in data set [6] turned out to be 87%. The molecule further showed an inhibition in vivo at 3 mg/kg in data set [1] of 52%.
